Reference: patent publication US10500226B2, “Alginate compositions and uses thereof” (Hadasit Medical Research Services and Development Ltd., priority 2012, dated 2019)

Test system: serum ALT (alanine aminotransferase)
Test: Concanavalin A mouse model: serum ALT
Format: in vivo, C57BL/6 (B6) mice
From the text: Injection of the T-cell mitogenic plant lectin concanavalin A (Con A) to non-sensitized mice results in hepatic apoptosis that precedes necrosis. The concanvalin A (Con A) model is a widely utilized mouse model, which mimics many aspects of human autoimmune hepatitis. It induces a massive liver necrosis in mice, simultaneously with lymphocyte infiltration into the liver, high levels of apoptotic hepatocytes and elevated serum alanine aminotransferase (ALT) and aspartate aminotransferase (AST). The liver injury is mediated by natural killer T (NKT) cells. Several apoptosis-related effector molecules, IFN-γ and TNF-α take part in the NKT cell-mediated liver injury. The immune-mediated liver injury which develops in the Con A model is very rapid, taking less than 48 hours. The peak for liver enzymes and pro-inflammtory cytokines is after less than 15 hours, making the model particularly useful for screening anti-inflammatory agents.
Tested solutions were administered intraperitoneally by injection of a volume of 200 μl per mouse or by administration per os of 250 μl per mouse, 1 hour before concanavalin A (Con A) administration. Saline (0.15 M NaCl) served as a negative control test solution.
Con A was dissolved at a concentration of 16 mg/kg in 200 μl of 50 mM Tris (pH 7), with 150 mM NaCl, and 4 mM CaCl2, and injected (at a dose of 0.4 mg/mouse) intravenously into the tail vein of mice. Sera from individual mice were obtained 6, 24 and 48 hours (14 hours in some experiments) after Con A injection. All mice were sacrificed after 48 hours (14 hours in some experiments).
Serum albumin levels after 48 hours were measured by an automatic analyzer.
The solutions were administered intraperitoneally to adult male C57BL mice at a dose of 200 μl per mouse. One hour later, the mice were challenged with an intravenous injection of concanavalin A (Con A), as described hereinabove. […] Each treatment group contained 4-5 mice. Serum levels of ALT, albumin, and the pro-inflammatory cytokines IL-6 and interferon-γ (IFNγ) were determined as described hereinabove.

## C[C@@H]1C[C@H]2[C@@H]3CCC4=CC(=O)C=C[C@]4(C)[C@@]3(F)[C@@H](O)C[C@]2(C)[C@@]1(O)C(=O)CO [Dexamethasone]
2% solutions i.p., 14 hours after Con A administration
  serum ALT levels: 203±14 units/liter
Table 3, 200 μl i.p. 1 hour before Con A (dexamethasone per os), 6 hours after Con A
  Serum levels of ALT: 146 ± 50 units/liter
Table 3, 200 μl i.p. 1 hour before Con A (dexamethasone per os), 24 hours after Con A
  Serum levels of ALT: 162 ± 50 units/liter
Table 3, 200 μl i.p. 1 hour before Con A (dexamethasone per os), 48 hours after Con A
  Serum levels of ALT: 69 ± 19 units/liter
Table 4 (hyaluronan comparison), i.p. before Con A, 6 hours after Con A
  Serum levels of ALT: 83 ± 21 units/liter
Table 4 (hyaluronan comparison), i.p. before Con A, 24 hours after Con A
  Serum levels of ALT: 68 ± 4 units/liter
Table 4 (hyaluronan comparison), i.p. before Con A, 48 hours after Con A
  Serum levels of ALT: 76 ± 23 units/liter
Table 5 (biotinylated alginate, 2%), before Con A, 6 hours after Con A
  Serum levels of ALT: 74 ± 5 units/liter
Table 5 (biotinylated alginate, 2%), before Con A, 24 hours after Con A
  Serum levels of ALT: 62 ± 14 units/liter
Table 5 (biotinylated alginate, 2%), before Con A, 48 hours after Con A
  Serum levels of ALT: 65 ± 16 units/liter
Table 6 (γ-irradiated alginate comparison), 6 hours after Con A
  Serum levels of ALT: 28 ± 10 units/liter
Table 6 (γ-irradiated alginate comparison), 24 hours after Con A
  Serum levels of ALT: 126 ± 37 units/liter
Table 6 (γ-irradiated alginate comparison), 48 hours after Con A
  Serum levels of ALT: 68 ± 7 units/liter
Table 7, per os 250 μl 1 hour before Con A, 6 hours after Con A
  Serum levels of ALT: 46 ± 6 units/liter
Table 7, per os 250 μl 1 hour before Con A, 24 hours after Con A
  Serum levels of ALT: 65 ± 10 units/liter
Table 7, per os 250 μl 1 hour before Con A, 48 hours after Con A
  Serum levels of ALT: 139 ± 26 units/liter
Table 8, per os, repeat with other alginates, 6 hours after Con A
  Serum levels of ALT: 33 ± 12 units/liter
Table 8, per os, repeat with other alginates, 24 hours after Con A
  Serum levels of ALT: 37 ± 10 units/liter
Table 8, per os, repeat with other alginates, 48 hours after Con A
  Serum levels of ALT: 31 ± 5 units/liter
